Values quoted from earlier work as cited in patent US5908934A, “Process for the preparation of chiral ketone intermediates useful for the preparation of flavopiridol and analogs” (Bristol-Myers Squibb Company, priority 1997, dated 1999).

Test system: apoptosis
Conditions: combination with known cytotoxic agents; J. Cell Sci., 108, 2897 (1995)

Cn1cnc2c(NCc3ccccc3)nc(NCCO)nc21 [olomucine]
synergy with known cytotoxic agents in inducing apoptosis: act synergistically with known cytotoxic agents in inducing apoptosis
